In patent US9216173B2, “2-Pyridyl carboxamide-containing spleen tyrosine kinase (SYK) inhibitors” (Merck Sharp & Dohme Corp., priority 2011, dated 2015):

target: T1, recombinant human GST-SYK (Homo sapiens, UniProt P43405); experiment: Homogeneous Time-Resolved Fluorescence (HTRF) assay for the recombinant human Syk enzyme; format: biochemical; conditions: GST-hSYK 5 pM, ATP 25 μM, 10-dose titration 10 μM to 0.508 nM; read-out: rhSYK Activity (IC50 rating)
T1 construct: purchased Carna Biosciences 08-176
Procedure, shortened: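 GST-hSYK fusion phosphorylates a peptide for 45 min at room temperature. Quenched with EDTA buffer containing 2 nM Eu-anti-phosphotyrosine antibody and 70 nM SA-APC. HTRF signal read after 30 min.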

**Q.** With `CCC(C)(N)CNc1cnc(C(N)=O)c(Nc2cc(C)cc(C)n2)c1` (centres unmarked) [Example 1.117, 5-[(2-amino-2-methylbutyl)amino]-3-[(4,6-dimethylpyridin-2-yl)amino]pyridine-2-carboxamide] as the molecule, how does the IC50 read?
**A.** < 10 nM

**Q.** How did the IC50 turn out when `NC(=O)c1ncc(N[C@H]2[C@@H](N)CCCC2(F)F)cc1Nc1cccc(-n2nccn2)n1` [Example 1.83, 5-{[(1S,6S)-6-amino-2,2-difluorocyclohexyl]amino}-3-{[6-(2H-1,2,3-triazol-2-yl)pyridin-2-yl]amino}pyridine-2-carboxamide] was run?
**A.** < 10 nM

**Q.** For `Cc1cc(C)nc(Nc2cc(NC(CN)c3ccccc3)cnc2C(N)=O)c1` (centres unmarked) [Example 1.22, 5-[(2-amino-1-phenylethyl)amino]-3-[(4,6-dimethylpyridin-2-yl)amino]pyridine-2-carboxamide], which IC50 is on record?
**A.** < 10 nM

**Q.** `Cc1cc(Nc2cc(N[C@@H]3CCCC[C@@H]3N)cnc2C(N)=O)nc(-c2cnn(C)c2)c1` [Example 1.110, 5-{[(1R,2S)-2-aminocyclohexyl]amino}-3-{[4-methyl-6-(1-methyl-1H-pyrazol-4-yl)pyridin-2-yl]amino}pyridine-2-carboxamide] was tested. Which IC50 did it give?
**A.** < 10 nM

**Q.** With `Cc1cc(O)cc(Nc2cc(N[C@@H]3CCCC[C@@H]3N)cnc2C(N)=O)n1` [Example 11, 5-{[(1R,2S)-2-aminocyclohexyl]amino}-3-[(4-hydroxy-6-methylpyridin-2-yl)amino]pyridine-2-carboxamide] as the molecule, how does the IC50 read?
**A.** 10 to 100 nM

**Q.** For `Cc1cc(-c2cnn(C)c2)cc(Nc2cc(N[C@@H]3CCCC[C@@H]3N)cnc2C(N)=O)n1` [Example 4.3, 5-{[(1R,2S)-2-aminocyclohexyl]amino}-3-{[6-methyl-4-(1-methyl-1H-pyrazol-4-yl)pyridin-2-yl]amino}pyridine-2-carboxamide], which IC50 is on record?
**A.** < 10 nM

**Q.** Which IC50 does the source give for `Cc1cc(Nc2cc(N[C@@H]3CCCC[C@@H]3N)cnc2C(N)=O)nc(-c2cnc(C(C)(C)O)s2)c1` [Example 1.114, 5-{[(1R,2S)-2-aminocyclohexyl]amino}-3-({6-[2-(1-hydroxy-1-methylethyl)-1,3-thiazol-5-yl]-4-methylpyridin-2-yl}amino)pyridine-2-carboxamide] here?
**A.** < 10 nM

**Q.** Which IC50 does the source give for `Cc1nc(Nc2cc(N[C@@H]3CCCC[C@@H]3N)cnc2C(N)=O)ccc1-n1ccnn1` [Example 1.74, 5-{[(1R,2S)-2-aminocyclohexyl]amino}-3-{[6-methyl-5-(1H-1,2,3-triazol-1-yl)pyridin-2-yl]amino}pyridine-2-carboxamide] here?
**A.** < 10 nM

**Q.** For `NC(=O)c1ncc(N[C@@H]2CCCC[C@@H]2N)cc1Nc1cccc(-c2ccccn2)n1` [Example 1.42, 5-{[(1R,2S)-2-aminocyclohexyl]amino}-3-(2,2′-bipyridin-6-ylamino)pyridine-2-carboxamide], which IC50 is on record?
**A.** < 10 nM

**Q.** For `Cc1cc(C)nc(Nc2cc(N[C@H]3CS(=O)(=O)C[C@@H]3N)cnc2C(N)=O)c1` (relative stereo) [Example 2.6, rel-5-{[(3R,4R)-4-amino-1,1-dioxidotetrahydrothiophen-3-yl]amino}-3-[(4,6-dimethylpyridin-2-yl)amino]pyridine-2-carboxamide], which IC50 is on record?
**A.** 100 to 1000 nM

**Q.** Which IC50 does the source give for `NC(=O)c1ncc(N[C@@H]2CCCC[C@@H]2N)cc1Nc1ncn(-c2ccccc2)n1` [Example 1.44, 5-{[(1R,2S)-2-aminocyclohexyl]amino}-3-[(1-phenyl-1H-1,2,4-triazol-3-yl)amino]pyridine-2-carboxamide] here?
**A.** 10 to 100 nM

**Q.** With `Cc1cc(C)nc(Nc2cc(NC3CC(N)C3)cnc2C(N)=O)c1` (centres unmarked) [Example 2.15, 5-[(3-aminocyclobutyl)amino]-3-[(4,6-dimethylpyridin-2-yl)amino]pyridine-2-carboxamide] as the molecule, how does the IC50 read?
**A.** 10 to 100 nM

**Q.** With `Cc1cc(C)nc(Nc2cc(NCC3(N)CCS(=O)(=O)CC3)cnc2C(N)=O)c1` [Example 1.29, 5-{[(4-amino-1,1-dioxidotetrahydro-2H-thiopyran-4-yl)methyl]amino}-3-[(4,6-dimethylpyridin-2-yl)amino]pyridine-2-carboxamide] as the molecule, how does the IC50 read?
**A.** 10 to 100 nM

**Q.** With `Cc1cc(-n2ccnn2)cc(Nc2cc(N[C@@H]3CCCC[C@@H]3N)cnc2C(N)=O)n1` [Example 1.75, 5-{[(1R,2S)-2-aminocyclohexyl]amino}-3-{[6-methyl-4-(1H-1,2,3-triazol-1-yl)pyridin-2-yl]amino}pyridine-2-carboxamide] as the molecule, how does the IC50 read?
**A.** < 10 nM

**Q.** Which IC50 does the source give for `COc1cc(Nc2cc(N[C@@H]3CCCC[C@@H]3N)cnc2C(N)=O)nc(OC)n1` [Example 1.124, 5-{[(1R,2S)-2-aminocyclohexyl]amino}-3-[(2,6-dimethoxypyrimidin-4-yl)amino]pyridine-2-carboxamide] here?
**A.** < 10 nM

**Q.** For `CC(=O)NCC(N)CNc1cnc(C(N)=O)c(Nc2cc(C)cc(C)n2)c1` (centres unmarked) [Example 6.1, 5-{[3-(acetylamino)-2-aminopropyl]amino}-3-[(4,6-dimethylpyridin-2-yl)amino]pyridine-2-carboxamide], which IC50 is on record?
**A.** 10 to 100 nM

**Q.** With `Cc1nc(Nc2cc(N[C@@H]3CCCC[C@@H]3N)cnc2C(N)=O)ccc1-n1nccn1` [Example 1.67, 5-{[(1R,2S)-2-aminocyclohexyl]amino}-3-{[6-methyl-5-(2H-1,2,3-triazol-2-yl)pyridin-2-yl]amino}pyridine-2-carboxamide] as the molecule, how does the IC50 read?
**A.** < 10 nM

**Q.** How did the IC50 turn out when `Cc1cc(C)nc(Nc2cc(NCC(N)C(F)F)cnc2C(N)=O)c1` (centres unmarked) [Example 2.4, 5-[(2-amino-3,3-difluoropropyl)amino]-3-[(4,6-dimethylpyridin-2-yl)amino]pyridine-2-carboxamide] was run?
**A.** 10 to 100 nM

**Q.** Which IC50 does the source give for `Cc1nc(Nc2cc(N[C@@H]3CCCC[C@@H]3N)cnc2C(N)=O)ccc1-c1cccc(N2CCN(C)CC2)c1` [Example 3.14, 5-{[(1R,2S)-2-aminocyclohexyl]amino}-3-({6-methyl-5-[3-(4-methylpiperazin-1-yl)phenyl]pyridin-2-yl}amino)pyridine-2-carboxamide] here?
**A.** < 10 nM

**Q.** How did the IC50 turn out when `NC(=O)c1ncc(N[C@@H]2CS(=O)(=O)CC[C@@H]2N)cc1Nc1ccn(-c2ccc(F)cc2)n1` (relative stereo) [Example 1.90, rel-5-{[(3S,4S)-4-amino-1,1-dioxidotetrahydro-2H-thiopyran-3-yl]amino}-3-{[1-(4 fluorophenyl)-1H-pyrazol-3-yl]amino}pyridine-2-carboxamide] was run?
**A.** < 10 nM

**Q.** `Cc1nc(Nc2cc(N[C@@H]3CCCC[C@@H]3N)cnc2C(N)=O)ccc1-c1ccc2cccnc2c1` [Example 3.27, 5-{[(1R,2S)-2-aminocyclohexyl]amino}-3-[(6-methyl-5-quinolin-7-ylpyridin-2-yl)amino]pyridine-2-carboxamide] was tested. Which IC50 did it give?
**A.** < 10 nM

**Q.** With `CCC(CN)Nc1cnc(C(N)=O)c(Nc2ccn(-c3ccc(F)cc3)n2)c1` (centres unmarked) [Example 1.96, 5-{[1-(aminomethyl)propyl]amino}-3-{[1-(4-fluorophenyl)-1H-pyrazol-3-yl]amino}pyridine-2-carboxamide] as the molecule, how does the IC50 read?
**A.** < 10 nM

**Q.** With `Cc1cccc(-n2ccc(Nc3cc(N[C@@H]4CCCC[C@@H]4N)cnc3C(N)=O)n2)c1` [Example 1.80, 5-{[(1R,2S)-2-aminocyclohexyl]amino}-3-{[1-(3-methylphenyl)-1H-pyrazol-3-yl]amino}pyridine-2-carboxamide] as the molecule, how does the IC50 read?
**A.** < 10 nM

**Q.** `COc1cccc(Nc2cc(N[C@@H]3CCCC[C@@H]3N)cnc2C(N)=O)n1` [Example 1.13, 5-{[(1R,2S)-2-aminocyclohexyl]amino}-3-[(6-methoxypyridin-2-yl)amino]pyridine-2-carboxamide] was tested. Which IC50 did it give?
**A.** < 10 nM

**Q.** For `Cc1nc(Nc2cc(N[C@@H]3CCCC[C@@H]3N)cnc2C(N)=O)ccc1-c1cccc(-n2nccn2)c1` [Example 3.20, 5-{[(1R,2S)-2-aminocyclohexyl]amino}-3-({6-methyl-5-[3-(2H-1,2,3-triazol-2-yl)phenyl]pyridin-2-yl}amino)pyridine-2-carboxamide], which IC50 is on record?
**A.** < 10 nM

**Q.** With `CCc1cccc(Nc2cc(NC[C@@H](N)COC)cnc2C(N)=O)n1` [Example 1.100, 5-{[(2R)-2-amino-3-methoxypropyl]amino}-3-[(6-ethylpyridin-2-yl)amino]pyridine-2-carboxamide] as the molecule, how does the IC50 read?
**A.** < 10 nM

**Q.** `Cc1cc(C)nc(Nc2cc(N[C@H]3CCC[C@H]3N)cnc2C(N)=O)c1` (single isomer, unassigned) [Example 1.26] was tested. Which IC50 did it give?
**A.** < 10 nM

**Q.** `NC(=O)c1ncc(N[C@@H]2CCCC[C@@H]2N)cc1Nc1cccc(-c2ccccc2)n1` [Example 1.28, 5-{[(1R,2S)-2-aminocyclohexyl]amino}-3-[(6-phenylpyridin-2-yl)amino]pyridine-2-carboxamide] was tested. Which IC50 did it give?
**A.** < 10 nM

**Q.** With `Cc1cc(C)nc(Nc2cc(NCC(N)C3CC3)cnc2C(N)=O)c1` (centres unmarked) [Example 1.118, 5-[(2-amino-2-cyclopropylethyl)amino]-3-[(4,6-dimethylpyridin-2-yl)amino]pyridine-2-carboxamide] as the molecule, how does the IC50 read?
**A.** < 10 nM

**Q.** With `Cc1cc(C)nc(Nc2cc(NS(=O)(=O)CCN)cnc2C(N)=O)c1` [Example 19, 5-{[(2-aminoethyl)sulfonyl]amino}-3-[(4,6-dimethylpyridin-2-yl)amino]pyridine-2-carboxamide] as the molecule, how does the IC50 read?
**A.** 100 to 1000 nM

**Q.** With `Cc1nc(Nc2cc(N[C@@H]3CCCC[C@@H]3N)cnc2C(N)=O)ccc1-c1ccc(C)c2ncccc12` [Example 3.32, 5-{[(1R,2S)-2-aminocyclohexyl]amino}-3-{[6-methyl-5-(8-methylquinolin-5-yl)pyridin-2-yl]amino}pyridine-2-carboxamide] as the molecule, how does the IC50 read?
**A.** < 10 nM

**Q.** Which IC50 does the source give for `Cc1cc(C)nc(Nc2cc(NC3CCNCC3)cnc2C(N)=O)c1` [Example 2.10, 3-[(4,6-dimethylpyridin-2-yl)amino]-5-(piperidin-4-ylamino)pyridine-2-carboxamide] here?
**A.** 100 to 1000 nM

**Q.** `Cc1cc(C)nc(Nc2cc(N[C@H]3CCC[C@H]3N)cnc2C(N)=O)c1` (single isomer, unassigned) [Example 1.25] was tested. Which IC50 did it give?
**A.** 10 to 100 nM

**Q.** How did the IC50 turn out when `Cc1cc(-c2cccnc2)cc(Nc2cc(N[C@@H]3CCCC[C@@H]3N)cnc2C(N)=O)n1` [Example 4.2, 5-{[(1R,2S)-2-aminocyclohexyl]amino}-3-[(6′-methyl-3,4′-bipyridin-2′-yl)amino]pyridine-2-carboxamide] was run?
**A.** < 10 nM

**Q.** For `Cc1cc(C)nc(Nc2cc(N[C@@H](CC(C)C)C(N)=O)cnc2C(N)=O)c1` [Example 1.40, N^2-{6-carbamoyl-5-[(4,6-dimethylpyridin-2-yl)amino]pyridin-3-yl}leucinamide], which IC50 is on record?
**A.** < 10 nM
